This passage reports IC50 results from article PMC9632241 (Antiviral Research, 2022).

Broadly, the IC50 is the point on the concentration scale where inhibition reaches its midpoint.

Each structure is given as a SMILES string.

For this experiment, the target named is SARS-CoV-1 M^pro (Severe acute respiratory syndrome-related coronavirus, UniProt P0C6U8). Kind of experiment: biochemical.

Compound `CCOC(=O)/C=C/[C@H](C[C@@H]1CCNC1=O)NC(=O)[C@@H](CC(=O)[C@@H](NC(=O)c1cc(C)on1)C(C)C)Cc1ccc(F)cc1` [rupintrivir, 4-{2-(4-fluoro-benzyl)-6-methyl-5-[(5-methyl-isoxazole-3-carbonil)-amino]-4-oxo-heptanoylamino}-5-(2-oxo-pyrrolidin-3-yl)-pentanoicacidethylester] displayed a half-maximal inhibitory concentration (IC50) of 66 µM.
